From patent EP3722295A1, “ANTI-VIRAL AND ANTI-CANCER ACTIVITY OF PYRIDO[2,3-D]PYRIMIDINE AND OXADIAZIOLE COMPOUNDS” (priority 2019, dated 2020)
Like-named read-outs stand apart in the source and are kept apart here.

Columns and labels:
WSN-PB2-Nanoluc virus = format: cell-based, influenza A/WSN/33
A549 cells = experiment: Cell viability assay (CellTiter-Glo, ATP levels) and observation of cell monolayers; format: cell-based, human
Method: Cell viability was assessed using the CellTiter-Glo® One Solution Assay kit (Promega) according to the manufacturer's instruction.

viral NS1 mRNA = experiment: NS1 mRNA splicing, quantitative real-time PCR; format: cell-based, influenza A/WSN/33; conditions: WSN-infected A549 cells, 60 µM, 6 h incubation
Method: (§1) Total RNA and poly(A)+ RNAs were extracted subsequently using the RNeasy Mini Kit (Qiagen) and Oligotex mRNA Mini kit (Qiagen), following the manufacturer's protocol. Reverse transcription (RT) was performed on 5-10 ng of total mRNA (or poly(A)+ RNA equivalent) using the Maxima First Strand cDNA Synthesis Kit (Thermo Scientific). Quantitative real-time PCR was performed on 2 µl of a 1/10 dilution of the RT reaction using the Luminaris Color Probe qPCR Master Mix (Thermo Scientific) and a Light Cycler 480 (Roche). The levels of NS1/NS2 and M1/M2 mRNAs were determined and normalized with respect to GAPDH mRNA levels using the protocol described in (23). The levels of PB2/PB2-S1 mRNAs were determined by semi-quantitative RT-PCR as described in (35).

FOS:JUN = molecular target: T1, FOS:JUN (Homo sapiens, UniProt P01100+P05412); experiment: FOS:JUN split luciferase interaction assay (specificity control); format: cell-based
T1 construct: expressed in transfected cells

RED-SMU1 complex = RED-SMU1 complex (Homo sapiens, UniProt Q2TAY7); experiment: In cellulo split luciferase-based RED-SMU1 interaction assay; format: cell-based; conditions: for inhibition at 60 µM: A549 cells, relative to DMSO
viral M1 mRNAs = experiment: M1 mRNA splicing, RT-qPCR; format: cell-based, influenza A/WSN/33; conditions: WSN-infected A549 cells, 60 µM
Method: as §1

PB2 mRNA = PB2 mRNA splicing, semi-quantitative RT-PCR; format: cell-based, influenza A/WSN/33; conditions: WSN-infected A549 cells, 60 µM
Method: as §1

RSV-Firefly virus = experiment: RSV-Firefly replication assay (specificity control); format: cell-based, human Respiratory Syncytial Virus
WSN virus = experiment: Production of infectious particles in A549 cells, plaque assay; format: cell-based, influenza A/WSN/33; conditions: 60 µM
[1] = molecular target: T2, endogenous RED-SMU1 complex (Homo sapiens, UniProt Q2TAY7); experiment: Western blot of steady-state levels of endogenous RED and SMU1 proteins; format: cell-based
T2 construct: Effect on the steady-state levels of the endogenous RED and SMU1 proteins; endogenous in cells; host or cells: A549

T1 sequence (P01100 whole entry): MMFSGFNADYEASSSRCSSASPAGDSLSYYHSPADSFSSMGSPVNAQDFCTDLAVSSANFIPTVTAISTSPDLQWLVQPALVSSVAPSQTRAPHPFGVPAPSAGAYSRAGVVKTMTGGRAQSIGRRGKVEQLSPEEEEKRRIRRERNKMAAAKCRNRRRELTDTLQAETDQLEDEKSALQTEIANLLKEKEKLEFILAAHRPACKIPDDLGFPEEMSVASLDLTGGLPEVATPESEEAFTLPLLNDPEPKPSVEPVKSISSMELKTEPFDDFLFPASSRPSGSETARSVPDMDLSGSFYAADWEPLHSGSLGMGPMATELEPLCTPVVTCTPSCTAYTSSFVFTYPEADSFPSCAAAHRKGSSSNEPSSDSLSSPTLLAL
T1 sequence (P05412 whole entry): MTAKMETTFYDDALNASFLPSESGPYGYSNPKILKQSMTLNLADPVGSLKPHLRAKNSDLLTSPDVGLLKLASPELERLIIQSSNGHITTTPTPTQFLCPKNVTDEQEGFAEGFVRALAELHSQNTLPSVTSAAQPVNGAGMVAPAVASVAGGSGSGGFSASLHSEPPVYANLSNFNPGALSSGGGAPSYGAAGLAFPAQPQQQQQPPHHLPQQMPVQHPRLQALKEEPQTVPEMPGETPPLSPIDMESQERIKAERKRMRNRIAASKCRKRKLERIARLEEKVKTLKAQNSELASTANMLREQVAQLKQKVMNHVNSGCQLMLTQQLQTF

| SMILES | inhibition of viral growth (WSN-PB2-Nanoluc virus) | growth of the tumoral cell line A549 (A549 cells) | cytotoxicity / cytostatic effect (A549 cells; A549 cells, 15, 30 and 60 µM, 24 and 48 hours of incubation) | reduction of NS2 to NS1 mRNA ratio (viral NS1 mRNA) [%] | effect in FOS:JUN interaction assay (FOS:JUN) | EC50 (RED-SMU1 complex) [µM] | inhibition at 60 µM (RED-SMU1 complex) [%] | splicing of the viral M1 mRNAs (viral M1 mRNAs) | PB2 mRNA splicing (PB2 mRNA) | RSV-Firefly signals (RSV-Firefly virus) | reduction of production of WSN infectious particles (WSN virus; 24 hpi) | reduction of production of WSN infectious particles (WSN virus; 48 hpi) [fold] | reduction of production of WSN infectious particles (WSN virus; 72 hpi) [fold] | Expression levels of RED and SMU1 proteins [1] | logP (physchem) | reduction of WSN-Nanoluc signals (WSN-PB2-Nanoluc virus) [fold] | effect in FOS:JUN interaction assay (FOS:JUN; specificity control, same concentrations as RED-SMU1 assay) | RSV-Firefly signals (RSV-Firefly virus; A549 cells, 7.5 - 60 µM, 24 hpi) |
| --- | --- | --- | --- | --- | --- | --- | --- | --- | --- | --- | --- | --- | --- | --- | --- | --- | --- | --- |
| CCN(CC)CCCCNc1ncc2cc(-c3cc(OC)cc(OC)c3)c(NC(=O)NC(C)(C)C)nc2n1 [PD173074, reference compound] | did not inhibit viral growth as efficiently as LSP61 |  |  |  |  |  |  |  |  |  |  |  |  |  |  |  |  |  |
| C#CCCCNc1ncc2cc(-c3cc(OC)cc(OC)c3)c(NC(=O)NC(C)(C)C)nc2n1 [LSP61] |  | inhibits the growth | no cytotoxicity but some cytostatic effect | 50 | none of the two compounds showed any significant effect | ~15 | 90 | did not inhibit | not affected | only moderate reductions | about 1000 fold | ~100 | ~10 | decreased | 4.8 | 25 |  |  |
| COc1cc(OC)cc(-c2cc3cnc(NCc4cn(C5CCN(Cc6ccccc6)CC5)nn4)nc3nc2NC(=O)NC(C)(C)C)c1 [LSP641] |  |  |  | 30 |  |  | 40 | did not inhibit | not affected |  |  |  |  |  |  |  | none of the two compounds showed any significant effect | only moderate reductions |
